From patent US20060106042A1, “Substituted heterocyclpyrmidines” (priority 2002, published 2006) come the findings set out here.

Data set [1] relates to greenhouse red spider mite (Tetranychus urticae). Nature of the data set: Tetranychus test (OP-resistant/dip treatment). The format is in vivo. Particulars: 168 h, 100 ppm, after 7 d, OP-resistant, bean plants dipped, read-out: Kill rate in % after 7 d. Here is the method: Tetranychus Test (OP-Resistant/Dip Treatment)
(§1) • Solvent: 7 parts by weight of dimethylformamide • Emulsifier: 2 parts by weight of alkylaryl polyglycol ether
After the desired period of time, the effect in % is determined. 100% means that all spider mites have been killed; 0% means that none of the spider mites have been killed.

The test system of data set [2] is peach aphid (Myzus persicae). Kind of data set: Myzus test (cabbage leaves, dip). The format is in vivo. Particulars: 500 ppm, cabbage leaves dipped. Here is the method: as §1
(§2) To produce a suitable preparation of active compound, 1 part by weight of active compound is mixed with the stated amounts of solvent and emulsifier, and the concentrate is diluted with emulsifier-containing water to the desired concentration.
Cabbage leaves (Brassica oleracea) which are heavily infested by the peach aphid (Myzus persicae) are treated by being dipped into the preparation of active compound of the desired concentration.
After the desired period of time, the kill in % is determined. 100% means that all aphids have been killed; 0% means that none of the aphids have been killed.

Data set [3] deals with caterpillars of the diamondback moth (Plutella xylostella). Nature of the data set: Plutella test (cabbage leaves, dip). The following applies: 500 ppm, cabbage leaves dipped. The format is in vivo. Here is the method: as §1, §2
Cabbage leaves (Brassica oleracea) are treated by being dipped into the preparation of active compound of the desired concentration and are populated with caterpillars of the diamondback moth (Plutella xylostella) while the leaves are still moist.
(§3) After the desired period of time, the kill in % is determined. 100% means that all caterpillars have been killed; 0% means that none of the caterpillars have been killed.

Data set [4] in a line: logP determination by reversed-phase HPLC (EEC Directive 79/831 Annex V.A8). Format: physicochemical. An excerpt: (a) Mobile phases for the determination of the acidic range: 0.1% aqueous phosphoric acid, acetonitrile; linear gradient from 10% acetonitrile to 90% acteonitrile—the corresponding measurement results in Table 1 are marked^a). […]
For data set [5], the system named is Heliothis armigera caterpillars. Nature of the data set: Heliothis armigera test (soya bean shoots, dip). Particulars: 500 ppm, soya bean shoots dipped. Format: in vivo. Here is the method: as §1, §2
Soya bean shoots (Glycine max) are treated by being dipped into the preparation of active compound of the desired concentration and are populated with Heliothis annigera caterpillars while the leaves are still moist.
as §3

The subject of data set [6] is larvae of the mustard beetle (Phaedon cochleariae). Nature of the data set: Phaedon larvae test (cabbage leaves, dip). Format: in vivo. The following applies: 168 h, after 7 d, cabbage leaves dipped, read-out: Kill rate in % after 7 d. Here is the method:
as §1
After the desired period of time, the kill in % is determined. 100% means that all beetle larvae have been killed; 0% means that none of the beetle larvae have been killed.

In data set [7] the test system is cotton aphid (Aphis gossypii). Nature of the data set: Aphis gossypii test (cotton leaves, dip). Format: in vivo. The following applies: 500 ppm, cotton leaves dipped. Here is the method:
as §1, §2
Cotton leaves (Gossypium hirsutum) which are heavily infested by the cotton aphid (Aphis gossypii) are treated by being dipped into the preparation of active compound of the desired concentration.
After the desired period of time, the kill in % is determined. 100% means all aphids have been killed; 0% means that none of the aphids have been killed.

Data set [8] has as its system caterpillars of the armyworm (Spodoptera frugiperda). Nature of the data set: Spodoptera frugiperda test (cabbage leaves, dip). Format: in vivo. The following applies: 168 h, after 7 d, cabbage leaves dipped, read-out: Kill rate in % after 7 d. Here is the method:
Spodoptera frugiperda Test
as §1, §3

Setting [9] is: reversed-phase HPLC column (C18), pH 2.3, read-out: logP (pH 2.3).
The mark [10] stands for this setting: reversed-phase HPLC column (C18); acidic range: 0.1% aqueous phosphoric acid/acetonitrile gradient, C18, 43° C.; read-out: logP a).

Read-outs that look alike come from different tables or passages of the source.

Take `FC(F)=CCCSc1nccc(-n2cccn2)n1` [Example 1, 2-[(4,4-difluoro-3-butenyl)-sulfanyl]-4-(pyrazol-1-yl)-pyrimidine]: in data set [1], the pest or weed control at 100 ppm came to 100%. Further, the “Kill rate in % after 6 d” value in data set [2] turned out to be 99%. Moreover, the “Kill rate in % after 7 d” value in data set [3] and in data set [5] was 100% each time. For the same molecule, in data set [4] (setting [9]), the chromatographic logP amounted to 3.3. For the same molecule, the pest or weed control at 500 ppm in data set [6] was 100%.

With `FC(F)=CCCSc1nccc(-c2ccccn2)n1` [Example 2], the “Kill rate in % after 6 d” value in data set [2] is given as 100%; in data set [7], 99%. In addition, the chromatographic logP in data set [4] (setting [9]) was 3.33. Besides, the pest or weed control at 500 ppm in data set [6] is 100%.

For the molecule `FC(F)=CCCSc1nccc(-c2nccc3ccccc23)n1` [Example 7], the pest or weed control at 100 ppm in data set [1] was determined as 100%. For the same molecule, the “Kill rate in % after 6 d” value in data set [2] turned out to be 100%; in data set [7] it was 98%. In addition, the “Kill rate in % after 7 d” value in data set [3] was determined as 100%. The chromatographic logP in data set [4] (setting [10]) stood at 3.67.

With `COc1ccnc(-c2ccnc(SCCC=C(F)F)n2)c1` [Example 8], the entries for the “Kill rate in % after 6 d” value in data set [2] and in data set [7] were 95% and 99%, respectively. In data set [4] (setting [10]), the chromatographic logP came out at 2.41.

As to `FC(F)=CCCSc1nccc(-c2nccs2)n1` [Example 11], the “Kill rate in % after 6 d” value in data set [2] is given as 95%. In addition, the chromatographic logP in data set [4] (setting [10]) is 3.33. For the same molecule, the pest or weed control at 500 ppm in data set [6] worked out at 95%.

With `FC(F)=CCCSc1nccc(-c2cnccn2)n1` [Example 14], the pest or weed control at 100 ppm in data set [1] amounted to 100%. In addition, the “Kill rate in % after 6 d” value in data set [2] is listed as 95%. In addition, the chromatographic logP in data set [4] (setting [10]) was 2.91.

Regarding `FC(F)=CCCSc1nccc(-n2ccnn2)n1` [Example 25], in data set [1], the pest or weed control at 100 ppm was found to be 100%. The “Kill rate in % after 7 d” value in data set [3] and in data set [5] was 100% each time. Further, in data set [4] (setting [10]), the chromatographic logP came to 2.62.

Take `FC(F)=CCCSc1nccc(-n2nccn2)n1` [Example 26]: the pest or weed control at 500 ppm in data set [8] is 100%. Moreover, the entries for the “Kill rate in % after 6 d” value in data set [2] and in data set [7] were 99% and 95%, respectively. Also, in data set [4] (setting [10]), the chromatographic logP stood at 2.7.

On to `COc1cccnc1-c1ccnc(SCCC=C(F)F)n1` [Example 37], for which the pest or weed control at 100 ppm in data set [1] came out at 100%. The “Kill rate in % after 7 d” value in data set [3] and in data set [5] was 100% in each case. Moreover, in data set [4] (setting [10]), the chromatographic logP was determined as 2.14.

In the case of `Cc1c(-c2ccnc(SCCC=C(F)F)n2)sc2ccccc12` [Example 54], the pest or weed control at 500 ppm in data set [8] was determined as 100%. In addition, the pest or weed control at 100 ppm in data set [1] turned out to be 100%. For the same molecule, the “Kill rate in % after 7 d” value in data set [3] turned out to be 100%. Besides, the chromatographic logP in data set [4] (setting [10]) is 5.25.
